In ChEMBL document CHEMBL1201862, “PubChem BioAssay data set” (2004):
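Tested at 5 concentrations; 48 h exposure; 96-well plates; endpoints linearly interpolated, else capped at highest concentration. Abbreviation: GI50, concentration required for 50% inhibition of growth.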 Active and inactive are the calls of the source. No stated cut-off is given here; in the data, active = GI50 up to about 1.1 µM and inactive = higher.

Experiments:
Assay in all cases: NCI anticancer screen, dose series, 48 h
[1] = test system: MDA-N
[2] = test system: K562
[3] = test system: NCI-H460
[4] = test system: MDA-MB-435
[5] = test system: SK-OV-3
[6] = test system: SR
[7] = test system: CCRF-CEM
[8] = test system: RXF 393
[9] = test system: A498
[10] = test system: 786-0
[11] = test system: HOP-62
[12] = test system: A549
[13] = test system: UACC-62
[14] = test system: RPMI-8226
[15] = test system: HCC 2998
[16] = test system: OVCAR-3
[17] = test system: NCI/ADR-RES
[18] = test system: SF-539
[19] = test system: NCI-H522
[20] = test system: MDA-MB-231

| Compound | GI50 [1] | GI50 [2] | GI50 [3] | GI50 [4] | GI50 [5] | GI50 [6] | GI50 [7] | GI50 [8] | GI50 [9] | GI50 [10] | GI50 [11] | GI50 [12] | GI50 [13] | GI50 [14] | GI50 [15] | GI50 [16] | GI50 [17] | GI50 [18] | GI50 [19] | GI50 [20] |
| --- | --- | --- | --- | --- | --- | --- | --- | --- | --- | --- | --- | --- | --- | --- | --- | --- | --- | --- | --- | --- |
| CCOC(=O)CC1C(C(=O)OCC)=Cn2c([nH]c3cccc4cccc2c43)=C1C(=O)OCC (configuration not stated) | > 100 µM (inactive) | > 100 µM (inactive) | > 100 µM (inactive) | 54.3 µM (inactive) | > 100 µM (inactive) | > 100 µM (inactive) | > 100 µM (inactive) | > 100 µM (inactive) | > 100 µM (inactive) | > 100 µM (inactive) | > 100 µM (inactive) | > 100 µM (inactive) | > 100 µM (inactive) | > 100 µM (inactive) | > 100 µM (inactive) | > 100 µM (inactive) | > 100 µM (inactive) | – | – | – |
| COC(=O)C1C(OCc2ccccc2)C2CCC1(OC)C=C2C (configuration not stated) | – | 41.1 µM (inactive) | > 100 µM (inactive) | – | > 100 µM (inactive) | 17.8 µM (inactive) | 26.9 µM (inactive) | 54.3 µM (inactive) | > 100 µM (inactive) | > 100 µM (inactive) | > 100 µM (inactive) | > 100 µM (inactive) | 64.6 µM (inactive) | 23.6 µM (inactive) | 62.5 µM (inactive) | > 51.6 µM (inactive) | – | 97.7 µM (inactive) | 29.4 µM (inactive) | – |
| c1ccc2c(c1)cc(C1NCCc3nc[nH]c31)c1ccccc12 (configuration not stated) | – | 15.2 µM (inactive) | 22.6 µM (inactive) | – | > 100 µM (inactive) | 34.3 µM (inactive) | 27.2 µM (inactive) | 31.7 µM (inactive) | 22.5 µM (inactive) | 32.1 µM (inactive) | 32.4 µM (inactive) | 54.5 µM (inactive) | 22.6 µM (inactive) | 37.6 µM (inactive) | 15.7 µM (inactive) | > 61.9 µM (inactive) | – | > 45.2 µM (inactive) | 27.7 µM (inactive) | – |
| NC(=S)N/N=C1\CCCCc2ccccc21 | > 10 µM (inactive) | > 10 µM (inactive) | > 10 µM (inactive) | > 10 µM (inactive) | – | > 10 µM (inactive) | > 10 µM (inactive) | > 10 µM (inactive) | – | > 10 µM (inactive) | > 10 µM (inactive) | > 10 µM (inactive) | – | > 10 µM (inactive) | > 10 µM (inactive) | > 10 µM (inactive) | > 10 µM (inactive) | – | > 10 µM (inactive) | – |
| CCOC(=O)Cc1ccc(Nc2nc3ccccc3nc2C(=O)OCC)cc1 | > 100 µM (inactive) | – | 44.6 µM (inactive) | > 100 µM (inactive) | 54.1 µM (inactive) | > 100 µM (inactive) | > 100 µM (inactive) | 24 µM (inactive) | 20.7 µM (inactive) | 34 µM (inactive) | 38.3 µM (inactive) | 35.2 µM (inactive) | 45.2 µM (inactive) | – | – | > 100 µM (inactive) | 50.7 µM (inactive) | 37.1 µM (inactive) | 89.9 µM (inactive) | – |
| O=C1C(Sc2ccc3ccccc3c2)=C(Sc2ccc3ccccc3c2)C(=O)c2ccccc21 | – | 3.47 µM (inactive) | 7.82 µM (inactive) | 17.7 µM (inactive) | 22.7 µM (inactive) | – | – | 14.8 µM (inactive) | 14.8 µM (inactive) | 12.7 µM (inactive) | 13.1 µM (inactive) | 4.72 µM (inactive) | 3.24 µM (inactive) | – | 5.38 µM (inactive) | – | 13.2 µM (inactive) | 10.2 µM (inactive) | 1.97 µM (inactive) | 4.59 µM (inactive) |
| C#CCOCn1cnc2ncnc(N)c21 | – | > 100 µM (inactive) | > 100 µM (inactive) | – | > 100 µM (inactive) | > 100 µM (inactive) | > 100 µM (inactive) | > 100 µM (inactive) | > 100 µM (inactive) | > 100 µM (inactive) | > 100 µM (inactive) | > 100 µM (inactive) | > 100 µM (inactive) | > 100 µM (inactive) | > 100 µM (inactive) | > 100 µM (inactive) | – | > 100 µM (inactive) | > 100 µM (inactive) | – |
| COc1ccc2c(-c3ccc(OCCN(C)C)cc3)c(Oc3ccccc3)c(=O)oc2c1 | – | 3.07 µM (inactive) | 7.64 µM (inactive) | 2.48 µM (inactive) | 6.27 µM (inactive) | 2.07 µM (inactive) | 3.54 µM (inactive) | 4.76 µM (inactive) | 13.4 µM (inactive) | 2.87 µM (inactive) | 13 µM (inactive) | 3.37 µM (inactive) | 2.78 µM (inactive) | 4.25 µM (inactive) | 3.5 µM (inactive) | 7.64 µM (inactive) | 4.5 µM (inactive) | 3.91 µM (inactive) | 3.48 µM (inactive) | 3.15 µM (inactive) |
| COc1ccccc1NC(=O)C1=C(C)NC(C)=C(C(=O)Nc2ccccc2OC)C1c1ccc(C2C(C(=O)Nc3ccccc3OC)=C(C)NC(C)=C2C(=O)Nc2ccccc2OC)cc1 | – | 2.18 µM (inactive) | 2.78 µM (inactive) | – | 13 µM (inactive) | 1.53 µM (inactive) | 0.813 µM (active) | 2.38 µM (inactive) | 6.12 µM (inactive) | 1.78 µM (inactive) | 6.35 µM (inactive) | > 27.8 µM (inactive) | 1.68 µM (inactive) | 2.43 µM (inactive) | 1.95 µM (inactive) | 2.29 µM (inactive) | – | 1.68 µM (inactive) | 1.8 µM (inactive) | – |
| COc1cc(C2c3cc4c(cc3[C@@H](Nc3ccccc3)C3CO[C@@H](OC)[C@H]23)OCO4)cc(OC)c1O (some centres not stated) | – | 6.78 µM (inactive) | 1.11 µM (active) | 9.79 µM (inactive) | 9.06 µM (inactive) | 1.95 µM (inactive) | 2.76 µM (inactive) | – | – | 5.14 µM (inactive) | 7.11 µM (inactive) | 2.13 µM (inactive) | – | 3.01 µM (inactive) | 6.9 µM (inactive) | – | 14.6 µM (inactive) | 5.41 µM (inactive) | 6.58 µM (inactive) | – |
| Cc1nn2c(N)cc(=O)nc2nc1/C=C/c1ccc(N(C)C)cc1 | 5.82 µM (inactive) | 9.08 µM (inactive) | 6.89 µM (inactive) | 7.93 µM (inactive) | > 100 µM (inactive) | > 100 µM (inactive) | < 0.01 µM (active) | 98.6 µM (inactive) | – | > 28.8 µM (inactive) | 9.55 µM (inactive) | 16.9 µM (inactive) | 5.02 µM (inactive) | 10.1 µM (inactive) | 3.18 µM (inactive) | – | > 100 µM (inactive) | – | 1.66 µM (inactive) | – |
| O=c1cc(-c2ccccc2)oc2ccc(-c3ccc4oc(-c5ccccc5)cc(=O)c4c3)cc12 | 15.4 µM (inactive) | 14.2 µM (inactive) | 19.6 µM (inactive) | 17.8 µM (inactive) | 44.8 µM (inactive) | – | 18 µM (inactive) | – | 14.7 µM (inactive) | 28.4 µM (inactive) | 19.1 µM (inactive) | 16.7 µM (inactive) | 14.9 µM (inactive) | 13.5 µM (inactive) | 16 µM (inactive) | > 10 µM (inactive) | 16.8 µM (inactive) | 15.6 µM (inactive) | – | – |
